Test results from EP2924039A1, “2-Amino-1-phenyl-pyrrolo[3,2-b]quinoxaline-3-carboxamide derivates” (Universität Zürich, priority 2014, dated 2015).

What was measured:
[1] = system: HOP-92 (lung cancer) cells; test: Cell culture and GI50 determination (resazurin), HOP-92; format: cell-based; conditions: Homo sapiens; HOP-92, resazurin
Experimental: (§1) Krek (Institute of Cell Biology, ETH Zurich) were cultured in Dulbelcco's modified Eagle's medium (DMEM) supplemented with 10% (v/v) fetal bovine serum. K562 leukemia cells obtained from Dr. Silvio Hemmi (Institute of Molecular Life Sciences, UZH) were cultured using RPMI medium supplemented with 5% (v/v) fetal bovine serum. All the media was additionally supplemented with 100 units/mL of penicillin, 100µg/mL of streptomycin, 4.5 g/L glucose, 0.11g/L sodium pyrubate and 2mM glutamine and the cells were grown at 37°C in 5% CO2 atmosphere with 80% relative humidity.
(§2) The old media was removed, the cells were washed with PBS (phosphate-buffered saline) and fresh media was added. […] Control cells were treated with the same DMSO concentrations. […] After 3 hours, the fluorescence was quantified using a fluorescence microplate reader (Biotek, FLx800™) at the respective excitation and emission wavelength of 560 and 590 nm. Resazurin becomes fluorescent under mitochondrial reduction and its emission directly correlates with the metabolic stability of the cells. […] All measurements were performed at least in triplicate (see table 1).

[2] = system: MDA-MB-231 (breast cancer) cells; test: Cell culture and GI50 determination (resazurin), MDA-MB-231; format: cell-based; conditions: Homo sapiens, MDA-MB-231, 72 h
Experimental: as §1, §2

[3] = system: KM12 (colon cancer) cells; test: Cell culture and GI50 determination (resazurin), KM12; format: cell-based; conditions: Homo sapiens
Experimental: as §1, §2

[4] = system: HT-29; test: Cell culture and GI50 determination (resazurin), HT-29; format: cell-based; conditions: Homo sapiens; HT-29, resazurin
Experimental: as §2

[5] = biological target: T1, EphA3 (Homo sapiens, UniProt P29320); test: Differential Scanning Fluorimetry; format: binding; conditions: 2 µM EphA3, compound 20µM; read-out: Delta Tm
T1 construct: A clone of EphA3 kinase domain (residues: 606-947); made in house; host or cells: Escherichia coli BL21 (DE3)
T1 sequence (P29320 606-947): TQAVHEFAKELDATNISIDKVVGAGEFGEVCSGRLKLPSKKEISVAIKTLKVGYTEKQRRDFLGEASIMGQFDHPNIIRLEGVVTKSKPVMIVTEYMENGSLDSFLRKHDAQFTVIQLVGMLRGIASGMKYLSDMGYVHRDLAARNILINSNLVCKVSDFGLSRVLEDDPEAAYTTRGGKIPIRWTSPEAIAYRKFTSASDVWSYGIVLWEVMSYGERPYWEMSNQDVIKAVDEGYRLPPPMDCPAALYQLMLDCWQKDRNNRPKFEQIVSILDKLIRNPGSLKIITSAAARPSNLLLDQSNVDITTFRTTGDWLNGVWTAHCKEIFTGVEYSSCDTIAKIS
Experimental: Cell pellets were resuspended in buffer A (50mM Tris, pH 8.0 and 100mM NaCl, supplemented with protease inhibitors) and lysed by sonication. After centrifugation at 15,000 rpm for 1 h, the soluble fraction of EphA3 was purified using […] (GE healthcare), followed by gel filtration chromatography (Superdex75; GE healthcare). The appropriate fractions were combined and concentrated to ~10 mg/mL using Amicon filter devices (10kDa as cutoff) in a storage solution (100mM sodium chloride and 10mM Tris-HCl pH 8.0, 5% glycerol). The resulting solution was aliquoted and stored at -80°C for further usage.
A final volume of 40µL was added per well in a 96 well plate and incubated at room temperature for 1 h. The plates were centrifuged for 3 min at 450 rcf. The temperature gradient was performed in the range of 25°C-75°C (50 acquisitions per degree at a ramp rate of 4.4°C/s) using a LightCycler 480 Real-Time PCR System. […] All measurements were performed in triplicate.

[6] = system: K-562 leukemia cells; test: Cell culture and GI50 determination (resazurin), K-562; format: cell-based; conditions: Homo sapiens, K562, K-562, 48 hour incubation
Experimental: as §1
After 24 hours, 12.5 µL of a 10 fold concentrated drug or DMSO solution in RMPI media was added in every well. After 48 hour incubation, cell viability was studied by measuring the ability of the cells to process resazurin.

[7] = system: A498 (kidney cancer) cells; test: Cell culture and GI50 determination (resazurin), A-498; format: cell-based; conditions: Homo sapiens, A-498, 48h incubation
Experimental: as §1, §2

[8] = biological target: T2, full-length human EphB4 (Homo sapiens, UniProt P54760); test: Cellular phosphorylation assay (sandwich ELISA, ProQinase); format: cell-based; conditions: mouse embryonic fibroblast cells overexpressing EphB4, stimulated with murine ephrinB2-Fc, read-out: cell IC50
T2 construct: stably transfected to overexpress full-length human EphB4; host or cells: Mouse embryonic fibroblast cells
T2 sequence (P54760 16-987): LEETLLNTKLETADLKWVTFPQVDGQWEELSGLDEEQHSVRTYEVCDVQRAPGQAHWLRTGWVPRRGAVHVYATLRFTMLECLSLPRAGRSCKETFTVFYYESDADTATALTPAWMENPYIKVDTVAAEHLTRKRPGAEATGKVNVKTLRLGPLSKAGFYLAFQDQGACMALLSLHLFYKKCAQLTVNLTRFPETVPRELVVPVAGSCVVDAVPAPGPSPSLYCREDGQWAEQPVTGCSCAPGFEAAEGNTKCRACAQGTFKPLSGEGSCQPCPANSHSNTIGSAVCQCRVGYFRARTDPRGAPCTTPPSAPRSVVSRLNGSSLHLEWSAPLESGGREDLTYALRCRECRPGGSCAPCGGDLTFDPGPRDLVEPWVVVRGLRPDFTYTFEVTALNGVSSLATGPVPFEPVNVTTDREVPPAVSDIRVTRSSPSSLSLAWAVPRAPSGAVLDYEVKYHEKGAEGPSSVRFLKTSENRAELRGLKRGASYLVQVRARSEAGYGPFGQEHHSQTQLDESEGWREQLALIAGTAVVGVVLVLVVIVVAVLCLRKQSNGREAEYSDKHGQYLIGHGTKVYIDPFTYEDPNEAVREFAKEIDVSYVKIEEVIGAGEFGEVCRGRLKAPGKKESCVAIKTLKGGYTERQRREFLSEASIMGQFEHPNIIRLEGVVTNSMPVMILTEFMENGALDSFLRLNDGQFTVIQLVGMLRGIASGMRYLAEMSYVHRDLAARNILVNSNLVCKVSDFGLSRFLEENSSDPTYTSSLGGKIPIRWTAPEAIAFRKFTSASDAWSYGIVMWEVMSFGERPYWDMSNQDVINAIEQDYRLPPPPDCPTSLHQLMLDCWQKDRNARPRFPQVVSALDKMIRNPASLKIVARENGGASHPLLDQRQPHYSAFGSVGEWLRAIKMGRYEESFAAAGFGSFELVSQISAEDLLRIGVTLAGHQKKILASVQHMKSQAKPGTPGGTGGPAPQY
Experimental: Cellular phosphorylation assays: The cellular phosphorylation experiments were performed at ProQinase GmbH. Mouse embryonic fibroblast cells, stably transfected to overexpress full-length human EphB4, were plated at 4×10^4 cells/well in DMEM supplemented with 10% FCS in 48-well culture dishes. Medium was replaced by DMEM without FCS before test compounds prediluted in 100% DMSO were added (final DMSO concentration of 1 %). After incubation for 90 min at 37 °C, cells were stimulated for 2 h at 4 °C using murine ephrinB2-Fc at a final concentration of 2 µg/ml. Quantification of EphB4 phosphorylation was assessed in a 96-well plate via sandwich ELISA using a myc capture antibody and an antiphosphotyrosine detection antibody. Table 4: Cell IC50 (µmol/l) in cells overexpressing EphB4

[9] = system: panel of 456 protein kinases; test: Selectivity profiling at DiscoveRx (KinomeScan); format: binding; conditions: 1 µM compound; for one or more of the protein kinases listed
Experimental: The selectivity profiling of compounds 10c, 10d, 10n and 10o were performed at DiscoveRx in a library of 456 kinases at a concentration of 1 µM. Briefly, kinases were mostly expressed as fusion proteins to […] and grown in 24-well blocks in E. Coli (derived from the BL21 strain). The rest of the kinases were expressed in HEK-293 cells and tagged with DNA for qPCR detection. Affinity resins were generated by mixing streptavidin-coated magnetic beads with biotinylated small molecule ligands for 30 minutes at 25 °C, followed by biotin and blocking buffer addition (SeaBlock (Pierce), 1 % BSA, 0.05 % Tween 20, 1 mM DTT). Inhibitors were kept at 40x stocks in 100% DMSO and added to the corresponding 384-well plates (40 µL). […] The kinase concentration present in the eluate was determined by qPCR. For further details, see Fabian, et. al., Nat. Biotechnol., 2005, 23 (3), 329-33.

| Compound | GI50 [1] [nM] | GI50 [2] [nM] | GI50 [3] [nM] | GI50 [4] [nM] | ΔTm at 20 µM [5] [°C] | GI50 [6] [nM] | GI50 [7] [nM] | IC50 [8] [nM] | control binding to the kinase in presence of the compound relative to control binding in absence of the compound [9] |
| --- | --- | --- | --- | --- | --- | --- | --- | --- | --- |
| Cc1ccc(NC(=O)c2cccc(C(F)(F)F)c2)cc1-n1c(N)c(C(N)=O)c2nc3ccccc3nc21 [Compound 10g, 2-amino-1-(2-methyl-5-(3-(trifluoromethyl)benzamido)phenyl)-1H-pyrrolo[2,3-b]quinoxaline-3-carboxamide] | 4230 | 3880 | 800 | 5870 | 12.3 | 730 | 2500 |  |  |
| NC(=O)c1c(N)n(-c2cc(NC(=O)c3cccc(C(F)(F)F)c3)ccc2F)c2nc3ccccc3nc12 [Compound 10h, 2-amino-1-(2-fluoro-5-(3-(trifluoromethyl)benzamido)phenyl)-1H-pyrrolo[2,3-b]quinoxaline-3-carboxamide] | 2060 | 1440 | 2160 | 1800 | 10.9 | 370 | 1880 |  |  |
| Cc1ccc(C(=O)Nc2cccc(C(F)(F)F)c2)cc1-n1c(N)c(C(N)=O)c2nc3ccccc3nc21 [Compound 10i] | 1920 | 1320 | 1570 | 2820 | 14.4 | 36 | 2070 |  |  |
| NC(=O)c1c(N)n(-c2cc(C(=O)Nc3cccc(C(F)(F)F)c3)ccc2F)c2nc3ccccc3nc12 [Compound 10j] | 2120 | 2690 | 1870 | 2970 | 13 | 81 | 2440 |  |  |
| NC(=O)c1c(N)n(-c2ccc(NC(=S)Nc3cccc(C(F)(F)F)c3)cc2)c2nc3ccccc3nc12 [Compound 10k, 2-amino-1-(4-(3-(3-(trifluoromethyl)phenyl)thioureido)phenyl)-1H-pyrrolo[2,3-b]quinoxaline-3-carboxamide] | 4250 | 9630 | 2520 | 16300 | 9.9 | 5070 | 8730 |  |  |
| Cc1cn(-c2cc(NC(=O)c3ccc(C)c(-n4c(N)c(C(N)=O)c5nc6ccccc6nc54)c3)cc(C(F)(F)F)c2)cn1 [Compound 10l] | 3010 | 3050 | 2840 | 4360 | 16.2 | 29 | 5710 |  |  |
| Cc1cn(-c2cc(C(=O)Nc3ccc(C)c(-n4c(N)c(C(N)=O)c5nc6ccccc6nc54)c3)cc(C(F)(F)F)c2)cn1 [Compound 10m] | 5120 | 1930 | 2540 | 13400 | 15.8 | 30 | 4010 |  |  |
| CC(C)(C)c1cc(NC(=O)Nc2ccc(-n3c(N)c(C(N)=O)c4nc5ccccc5nc43)cc2)n(-c2ccc3ncccc3c2)n1 [Compound 10n, 2-amino-1-(4-(3-(5-tert-butyl-2-quinolin-6-yl-2H-pyrazol)ureido)phenyl)-1H-pyrrolo[2,3-b]quinoxaline-3-carboxamide] | 450 | 210 | 150 | 1250 | 19.3 | 3 | 730 | 1100 | less than 10% of control |
| Cc1ccc(-n2nc(C(C)(C)C)cc2NC(=O)Nc2ccc(-n3c(N)c(C(N)=O)c4nc5ccccc5nc43)cc2)cc1 [Compound 10o] | 1480 | 980 | 210 | 780 | 17.3 | 20 | 1000 | 370 | less than 10% of control |
| NC(=O)c1c(N)n(-c2ccc(NC(=O)Nc3cccc(C(F)(F)F)c3)cc2)c2nc3ccccc3nc12 [Compound 10p, 2-amino-1-(4-(3-(3-(trifluoromethyl)phenyl)ureido)phenyl)-1H-pyrrolo[2,3-b]quinoxaline-3-carboxamide] | 10000 | 10300 | 670 | 18000 |  | 5450 | 10800 |  |  |
